Common to all, as to type: cell-based
Experiment [1] concerns Proteus rettgeri KY4289. In words: Antibacterial activity, Heart Infusion Agar Dilution Method, Proteus rettgeri KY4289. The following applies: for MIC: Providencia rettgeri, pH 7.2, read-out: Minimum Inhibitory Concentration; for Minimum Inhibitory Concentration: pH 7.2. The method, then:
(§1) The antibacterial activity of the compounds obtained in the above Examples 24, 26, 28, 30, 32, 34, 36, 38, 40 and 41 are determined by Heart Infusion Agar Dilution Method (pH 7.2). Cefazolin is used as a reference.
In general terms: In agar dilution the substance is mixed into plates at graded concentrations.

Experiment [2] deals with Escherichia coli Juhl. Description: Antibacterial activity, Heart Infusion Agar Dilution Method, Escherichia coli Juhl. The following applies: Escherichia coli Juhl, Heart Infusion Agar Dilution, pH 7.2; for MIC: read-out: Minimum Inhibitory Concentration.
Experiment [3] has as its system Serratia marcescens T26. In words: Antibacterial activity, Heart Infusion Agar Dilution Method, Serratia marcescens T26. The following applies: for MIC: pH 7.2, read-out: Minimum Inhibitory Concentration.
Experiment [4] deals with Proteus morganii KY4298. In words: Antibacterial activity, Heart Infusion Agar Dilution Method, Proteus morganii KY4298. The following applies: for MIC: Morganella morganii, pH 7.2, read-out: Minimum Inhibitory Concentration; for Minimum Inhibitory Concentration: pH 7.2. The method, then:
as §1

In experiment [5] the test system is Staphylococcus epidermidis. In words: Antibacterial activity, Heart Infusion Agar Dilution Method, Staphylococcus epidermidis. The note with it: for MIC: pH 7.2, read-out: Minimum Inhibitory Concentration. The method, then: as §1
Experiment [6] has as its system Pseudomonas putida F264. In words: Antibacterial activity, Heart Infusion Agar Dilution Method, Pseudomonas putida F264. The note with it: for MIC: pH 7.2, read-out: Minimum Inhibitory Concentration.
Experiment [7] relates to Pseudomonas aeruginosa 145. Description: Antibacterial activity, Heart Infusion Agar Dilution Method, Pseudomonas aeruginosa 145. The following applies: for MIC: Pseudomonas aeruginosa, 145, pH 7.2, read-out: Minimum Inhibitory Concentration. How it is done:
as §1

In experiment [8] the test system is Staphylococcus aureus Smith. In words: Antibacterial activity, Heart Infusion Agar Dilution Method, Staphylococcus aureus Smith. The following applies: for MIC: pH 7.2, read-out: Minimum Inhibitory Concentration. How it is done: as §1
Experiment [9] relates to Proteus mirabilis 1287. Description: Antibacterial activity, Heart Infusion Agar Dilution Method, Proteus mirabilis 1287. The note with it: for MIC: pH 7.2, read-out: Minimum Inhibitory Concentration; for Minimum Inhibitory Concentration: pH 7.2. The method, then:
as §1

Experiment [10] relates to Staphylococcus aureus 209p. Description: Antibacterial activity, Heart Infusion Agar Dilution Method, Staphylococcus aureus 209p. The following applies: for MIC: pH 7.2, read-out: Minimum Inhibitory Concentration. How it is done: as §1
For experiment [11], the system named is Klebsiella pneumoniae 8045. Description: Antibacterial activity, Heart Infusion Agar Dilution Method, Klebsiella pneumoniae 8045. The note with it: for MIC: pH 7.2, read-out: Minimum Inhibitory Concentration; for Minimum Inhibitory Concentration: pH 7.2. How it is done: as §1
The test system of experiment [12] is Proteus vulgaris 6897. In words: Antibacterial activity, Heart Infusion Agar Dilution Method, Proteus vulgaris 6897. The following applies: for MIC: pH 7.2, read-out: Minimum Inhibitory Concentration; for Minimum Inhibitory Concentration: pH 7.2. How it is done: as §1
Experiment [13] relates to Serratia marcescens T55. In words: Antibacterial activity, Heart Infusion Agar Dilution Method, Serratia marcescens T55. The note with it: for MIC: pH 7.2, read-out: Minimum Inhibitory Concentration; for Minimum Inhibitory Concentration: pH 7.2.
Experiment [14] concerns Klebsiella pneumoniae Y60. Description: Antibacterial activity, Heart Infusion Agar Dilution Method, Klebsiella pneumoniae Y60. The note with it: for MIC: pH 7.2, read-out: Minimum Inhibitory Concentration.
Experiment [15] relates to Escherichia coli NIHJC2. Description: Antibacterial activity, Heart Infusion Agar Dilution Method, Escherichia coli NIHJC2. The following applies: Escherichia coli NIHJC2, Heart Infusion Agar Dilution, pH 7.2; for MIC: read-out: Minimum Inhibitory Concentration. The method, then:
as §1

Converted amounts (≈) assume the structure as drawn. Structures can show the parent of a compound that is named as a salt. Where only a bound is given, the exact number is not on record here.

For `N[C@@H](C(=O)N[C@H]1C(=O)N2C(C(=O)O)=CCC[C@H]12)c1ccccc1` (racemic) [Example 26, (±)-cis-7-[(R)-2-phenyl-2-aminoacetamido]-1-azabicyclo-[4,2,0]oct-2-en-8-on-2-carboxylic acid], the MIC in experiment [1] was 50 µg/mL (≈ 159 µM); in experiment [2], 12.5 µg/mL (≈ 39.6 µM); in experiment [3], over 100 µg/mL; in experiment [4], 100 µg/mL (≈ 317 µM); in experiment [5] it was 6.25 µg/mL (≈ 19.8 µM); in [6], over 100 µg/mL. Moreover, the MIC in experiment [7] is over 100 µg/mL; in [8] it was 12.5 µg/mL (≈ 39.6 µM); in [9] it was 25 µg/mL (≈ 79.3 µM); in experiment [10], 0.4 µg/mL (≈ 1.27 µM); in experiment [11], 3.12 µg/mL (≈ 9.89 µM); in experiment [12], 25 µg/mL (≈ 79.3 µM). The MIC was found to be 25 µg/mL (≈ 79.3 µM) in experiment [13], 12.5 µg/mL (≈ 39.6 µM) in experiment [14] and 12.5 µg/mL (≈ 39.6 µM) in experiment [15].

In the case of `CON=C(C(=O)NC1C(=O)N2C(C(=O)O)=CC(C)CC12)c1csc(N)n1` (racemic) [Example 36, (±)-cis-7β-[2-(2-amino-4-thiazolyl)-2-methoxyiminoacetamido]-4β-methyl-2-carboxy-1-azabicyclo[4,2,0]oct-2-en-8-one], the “Minimum Inhibitory Concentration” value in [1] was 0.4 µg/mL; in [3] (pH 7.2), 6.25 µg/mL; in experiment [4] it was 0.78 µg/mL; in experiment [5] (pH 7.2) it was over 100 µg/mL; in [6] (pH 7.2), 0.4 µg/mL; in [7] (Pseudomonas aeruginosa 145, Heart Infusion Agar Dilution, pH 7.2), over 100 µg/mL. In addition, the “Minimum Inhibitory Concentration” value in experiment [8] (pH 7.2) amounted to 100 µg/mL; in experiment [9], 0.78 µg/mL; in experiment [10] (pH 7.2), 50 µg/mL; in experiment [11], 0.2 µg/mL; in experiment [12], 0.78 µg/mL; in experiment [13], 3.12 µg/mL. Besides, the “Minimum Inhibitory Concentration” value in experiment [15] was 0.2 µg/mL.

As to `CO/N=C(/C(=O)N[C@@H]1C(=O)N2C(C(=O)O)=CCC[C@H]12)c1csc(N)n1` (relative stereo) [Example 24, (±)-cis-7-[2-(2-amino-4-thiazolyl)-2-anti-methoxyimino-acetamido]-1-azabicyclo[4,2,0]oct-2-en-8-one-2-carboxylic acid], the MIC amounted to 0.1 µg/mL (≈ 0.274 µM) in experiment [1]; 1.56 µg/mL (≈ 4.27 µM) in experiment [2]; 3.12 µg/mL (≈ 8.54 µM) in [3]; 0.78 µg/mL (≈ 2.13 µM) in experiment [4]; 100 µg/mL (≈ 274 µM) in [5]; 0.78 µg/mL (≈ 2.13 µM) in [6]. The MIC in [7] is over 100 µg/mL; in experiment [8], over 100 µg/mL; in [9] it was 0.78 µg/mL (≈ 2.13 µM); in experiment [10] it was 100 µg/mL (≈ 274 µM); in experiment [11] it was 0.2 µg/mL (≈ 0.547 µM); in [12] it was 0.4 µg/mL (≈ 1.09 µM). In addition, the MIC worked out at 1.56 µg/mL (≈ 4.27 µM) in [13], 1.56 µg/mL (≈ 4.27 µM) in experiment [14] and 0.78 µg/mL (≈ 2.13 µM) in experiment [15].

`C[C@H]1C=C(C(=O)O)N2C(=O)[C@@H](NC(=O)[C@H](N)c3ccccc3)[C@H]2C1` (relative stereo) [Example 30, trifluoroacetate of (±)-cis-7β-[(R)-2-phenyl-2-aminoacetamido]-4β-methyl-2-carboxy-1-azabicyclo[4,2,0]oct-2-en-8-one]: the MIC is over 100 µg/mL in experiment [1]; 25 µg/mL in experiment [2]; over 100 µg/mL in experiment [3]; over 100 µg/mL in experiment [4]; 3.12 µg/mL in experiment [5]; over 100 µg/mL in experiment [6]. In addition, the MIC in [7] is over 100 µg/mL; in experiment [8] it was 1.56 µg/mL; in [9], over 100 µg/mL; in experiment [10], 0.4 µg/mL; in [11], 6.25 µg/mL; in experiment [12], over 100 µg/mL. The MIC was over 100 µg/mL in [13], 100 µg/mL in experiment [14] and 50 µg/mL in experiment [15].

Take `C[C@@H]1C=C(C(=O)O)N2C(=O)[C@@H](NC(=O)[C@H](N)c3ccccc3)[C@H]2C1` (relative stereo) [Example 32, (±)-cis-7β-[(R)-2-phenyl-2-aminoacetamido]-4α-methyl-2-carboxy-1-azabicyclo[4,2,0]oct-2-en-8-one]: the MIC in [1] was over 100 µg/mL; in experiment [2], 12.5 µg/mL (≈ 38 µM); in experiment [3], over 100 µg/mL; in experiment [4] it was 100 µg/mL (≈ 304 µM); in [5], 6.25 µg/mL (≈ 19 µM); in experiment [6], 100 µg/mL (≈ 304 µM). Further, the MIC is over 100 µg/mL in experiment [7]; 6.25 µg/mL (≈ 19 µM) in experiment [8]; 50 µg/mL (≈ 152 µM) in experiment [9]; 0.78 µg/mL (≈ 2.37 µM) in experiment [10]; 3.12 µg/mL (≈ 9.47 µM) in experiment [11]; 50 µg/mL (≈ 152 µM) in experiment [12]. Moreover, the MIC is 25 µg/mL (≈ 75.9 µM) in experiment [13], over 100 µg/mL in experiment [14] and 12.5 µg/mL (≈ 38 µM) in experiment [15].

`CO/N=C(/C(=O)N[C@@H]1C(=O)N2C(C(=O)O)=C[C@@H](C)C[C@H]12)c1csc(N)n1` (relative stereo) [Example 34, (±)-cis-7β[2-(2-amino-4-thiazolyl)-2-anti-methoxyiminoacetamido]-4α-methyl-2-carboxy-1-azabicyclo[4,2,0]oct-2-en-8-one]: the MIC in experiment [1] was 0.1 µg/mL (≈ 0.264 µM); in [2], 0.78 µg/mL (≈ 2.06 µM); in experiment [3], 25 µg/mL (≈ 65.9 µM); in experiment [4], 0.78 µg/mL (≈ 2.06 µM); in experiment [5], 25 µg/mL (≈ 65.9 µM); in experiment [7], over 100 µg/mL. Further, the MIC is 25 µg/mL (≈ 65.9 µM) in [8]; 0.2 µg/mL (≈ 0.527 µM) in experiment [9]; 12.5 µg/mL (≈ 32.9 µM) in [10]; 0.1 µg/mL (≈ 0.264 µM) in [11]; under 0.05 µg/mL in experiment [12]; 0.4 µg/mL (≈ 1.05 µM) in experiment [15].

With `CO/N=C(\C(=O)N[C@@H]1C(=O)N2C(C(=O)O)=C[C@@H](C)C[C@H]12)c1csc(N)n1` (relative stereo) [Example 38, (±)-cis-7β-[2-(2-amino-4-thiazolyl)-2-syn-methoxyiminoacetamido]-4α-methyl-1-azabicyclo[4,2,0]oct-2-en-8-one-2-carboxylic acid], the MIC was at most 0.05 µg/mL in experiment [1]; at most 0.05 µg/mL in experiment [2]; at most 0.05 µg/mL in experiment [4]; 12.5 µg/mL (≈ 32.9 µM) in [5]; at most 0.05 µg/mL in experiment [6]; over 100 µg/mL in experiment [7]. The MIC was 12.5 µg/mL (≈ 32.9 µM) in experiment [8]; at most 0.05 µg/mL in [9]; 12.5 µg/mL (≈ 32.9 µM) in [10]; at most 0.05 µg/mL in experiment [11]; at most 0.05 µg/mL in [12]; 0.1 µg/mL (≈ 0.264 µM) in experiment [13]. The MIC in experiment [14] and in experiment [15] was at most 0.05 µg/mL each time.

For `N[C@@H](C(=O)NC1C(=O)N2C(C(=O)O)=CCCC12)c1ccccc1` (single isomer, unassigned) [Example 26 A isomer], the “Minimum Inhibitory Concentration” value turned out to be 6.25 µg/mL in experiment [1]; 100 µg/mL in experiment [2]; 50 µg/mL in [4]; 25 µg/mL in [9]; 50 µg/mL in [11]; 25 µg/mL in experiment [12]. The “Minimum Inhibitory Concentration” value in [13] came out at 100 µg/mL; in [14] (pH 7.2), 50 µg/mL; in [15] it was 50 µg/mL.

The record behind these values is patent US4291164A, “Cephalosporin analogs and methods for production thereof” (Kyowa Hakko Kogyo Co., Ltd., priority 1978, dated 1981).
